Measurements from ChEMBL document CHEMBL1201862, “PubChem BioAssay data set” (2004).
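Five concentrations, 48 hours, 96-well plates. Abbreviation: GI50, concentration required for 50% inhibition of growth.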 The source made the active and inactive calls. Rule as the data show it: active = GI50 up to about 1.1 µM and inactive = higher.

How the values were obtained:
Assay in all cases: inhibition of tumour cell growth, NCI panel, 48 h
RPMI-8226 = system: RPMI-8226
UACC-257 = system: UACC-257
SNB-19 = system: SNB-19
HCC 2998 = system: HCC 2998
HL-60 = system: HL-60
COLO 205 = system: COLO 205
K562 = system: K562
ACHN = system: ACHN
SF-539 = system: SF-539
Malme-3M = system: Malme-3M
HT-29 = system: HT-29
OVCAR-4 = system: OVCAR-4
A549 = system: A549
CAKI-1 = system: CAKI-1
SK-OV-3 = system: SK-OV-3
HCT-15 = system: HCT-15
A498 = system: A498

| SMILES | GI50 (RPMI-8226) | GI50 (UACC-257) | GI50 (SNB-19) | GI50 (HCC 2998) | GI50 (HL-60) | GI50 (COLO 205) | GI50 (K562) | GI50 (ACHN) | GI50 (SF-539) | GI50 (Malme-3M) | GI50 (HT-29) | GI50 (OVCAR-4) | GI50 (A549) | GI50 (CAKI-1) | GI50 (SK-OV-3) | GI50 (HCT-15) [µM] | GI50 (A498) |
| --- | --- | --- | --- | --- | --- | --- | --- | --- | --- | --- | --- | --- | --- | --- | --- | --- | --- |
| O=C1CCC2(O)c3ccccc3C2Cc2ccccc21 (stereo not drawn) | > 100 µM (inactive) | > 100 µM (inactive) | > 100 µM (inactive) | > 100 µM (inactive) | > 100 µM (inactive) | > 100 µM (inactive) | > 100 µM (inactive) | > 100 µM (inactive) | > 100 µM (inactive) | > 100 µM (inactive) | > 100 µM (inactive) |  |  |  |  |  |  |
| Cc1cc(O)nc(NNC(C#N)c2c(O)ccc3ccccc23)n1 (stereo not drawn) | 3.72 µM (inactive) | 3.64 µM (inactive) |  |  | 0.966 µM (active) | 22.4 µM (inactive) | 3.68 µM (inactive) | 1.8 µM (inactive) | 3.85 µM (inactive) | 7.55 µM (inactive) | 17.3 µM (inactive) | 3.32 µM (inactive) | 2.9 µM (inactive) | 3.18 µM (inactive) | 7.08 µM (inactive) | 1.82 |  |
| N/N=C(/C(=O)Nc1cccc(Cl)c1)C(C(=O)c1ccc(O)cc1O)C1OC(=O)c2ccccc21 (stereo not drawn) | 90.6 µM (inactive) | > 100 µM (inactive) | 68.2 µM (inactive) | > 100 µM (inactive) | > 100 µM (inactive) | > 100 µM (inactive) | > 100 µM (inactive) | > 100 µM (inactive) | > 100 µM (inactive) | > 100 µM (inactive) | > 100 µM (inactive) | > 100 µM (inactive) | > 100 µM (inactive) |  | > 100 µM (inactive) | > 100 | 25.5 µM (inactive) |
| CCOC(=O)[C@H]1Nc2ccc([N+](=O)[O-])cc2C2c3ccccc3CC21 (stereo partly drawn) | 16.9 µM (inactive) | 18.7 µM (inactive) | 28.4 µM (inactive) | 21.3 µM (inactive) |  | 30.9 µM (inactive) | 3.89 µM (inactive) | 23.6 µM (inactive) | 17.3 µM (inactive) | 19 µM (inactive) | 16 µM (inactive) | 18.4 µM (inactive) | 25.9 µM (inactive) | 27.8 µM (inactive) |  | 15.3 |  |
| CCCCOP1(=O)CC(C)=C(Cl)C(C)(OC)C1 (stereo not drawn) |  | > 100 µM (inactive) | > 100 µM (inactive) | > 100 µM (inactive) | 26.9 µM (inactive) | > 100 µM (inactive) | 29.6 µM (inactive) | > 100 µM (inactive) | > 100 µM (inactive) | > 100 µM (inactive) | > 100 µM (inactive) | > 100 µM (inactive) | > 100 µM (inactive) |  | > 100 µM (inactive) | > 100 |  |
| O=C1CCN2CCC(=O)c3c2c(cc2ccccc32)N1 | > 100 µM (inactive) | > 100 µM (inactive) | > 100 µM (inactive) | > 100 µM (inactive) |  | > 100 µM (inactive) | > 100 µM (inactive) | > 100 µM (inactive) | > 100 µM (inactive) | > 100 µM (inactive) | > 100 µM (inactive) |  | > 100 µM (inactive) | > 100 µM (inactive) | > 100 µM (inactive) | > 100 | > 100 µM (inactive) |
| COC(=O)CCCCCOS(=O)(=O)c1ccc(C)cc1 |  | > 100 µM (inactive) | > 100 µM (inactive) | > 100 µM (inactive) | > 100 µM (inactive) | > 100 µM (inactive) | > 100 µM (inactive) | > 100 µM (inactive) | > 100 µM (inactive) | > 100 µM (inactive) | > 100 µM (inactive) |  | > 100 µM (inactive) |  | > 100 µM (inactive) | > 100 | > 100 µM (inactive) |
| Cc1cc2occ(C)c(=O)c2c2c1OC(C)(C)S2 | 82.4 µM (inactive) | > 100 µM (inactive) | > 100 µM (inactive) | > 100 µM (inactive) | 38.1 µM (inactive) | > 100 µM (inactive) | 51.9 µM (inactive) | > 100 µM (inactive) | > 100 µM (inactive) | > 100 µM (inactive) | 97.9 µM (inactive) | > 100 µM (inactive) | > 100 µM (inactive) |  | > 100 µM (inactive) | > 100 |  |
